Laboratory results: patent publication US9839642B2, “Beta-tetrazolyl-propionic acids as metallo-beta-lactamase inhibitors” (priority 2014, dated 2017)
Where two headings read alike, the source gives them in different places.

Assays:
[1] = test system: Escherichia coli expressing NDM-1 (CLB30016); experiment: Antibiotic potentiation activity: synergistic concentration (MITC95) with imipenem, growth by OD600; format: cell-based
Method in brief: (§1)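 MITC95 = lowest inhibitor concentration giving 95% growth inhibition, read by absorbance after 22–24 h at 35° C. Compound range 200 μM to 0.195 μM, imipenem fixed at 1 or 4 μg/ml, bacteria in 1.1×CAMHB from saline suspension diluted 1:100.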

[2] = test system: Serratia marcescens expressing IMP-1 (CL5741); experiment: as above; format: cell-based
Method in brief: as §1

[3] = test system: Klebsiella pneumoniae expressing VIM-1 (IHMA599644); experiment: as above; format: cell-based
Method in brief: as §1

IMP-1 = IMP-1 (Serratia marcescens, UniProt P52699); experiment: Enzyme activity: determination of IC50, fluorescence assay with CCF2-FA substrate; format: biochemical; settings: CCF2-FA 1.25 μM, 2 hours at 25° C., read-out: IMP1 IC50
Chain of IMP-1 (P52699 19-246, looked up, species assumed): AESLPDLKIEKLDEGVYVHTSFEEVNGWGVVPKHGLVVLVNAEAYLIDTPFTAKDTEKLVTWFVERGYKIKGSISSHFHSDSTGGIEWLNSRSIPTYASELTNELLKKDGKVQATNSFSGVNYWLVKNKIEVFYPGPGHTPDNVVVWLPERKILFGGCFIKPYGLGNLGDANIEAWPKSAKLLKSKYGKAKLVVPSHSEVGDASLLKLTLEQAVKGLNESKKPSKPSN
Method in brief: (§2)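 100 mM KH2PO4 pH 7 + 0.005% Tween-20 + 10 μM ZnSO4; CCF2-FA 1.25 μM; NDM-1 1 pM, IMP-1 2 pM, VIM-1 30 pM; cpd 20–0.00063 μM final, DMSO 1:50. 2 h, 25° C. Ex 405/em 460 nm; IC50, 4-param fit.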

NDM-1 = NDM-1 (Klebsiella pneumoniae, UniProt C7C422); experiment: as above; format: biochemical; settings: CCF2-FA 1.25 μM, 2 hours at 25° C., read-out: NDM1 IC50
Chain of NDM-1 (C7C422 29-270, looked up, species assumed): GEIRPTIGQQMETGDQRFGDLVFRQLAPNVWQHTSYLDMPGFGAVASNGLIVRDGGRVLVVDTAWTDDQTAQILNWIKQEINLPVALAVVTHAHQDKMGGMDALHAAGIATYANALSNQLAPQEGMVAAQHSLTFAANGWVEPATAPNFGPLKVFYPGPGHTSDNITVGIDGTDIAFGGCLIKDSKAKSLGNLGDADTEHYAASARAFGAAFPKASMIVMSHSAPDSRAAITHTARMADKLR
Method in brief: as §2

VIM-1 = VIM-1 (Pseudomonas aeruginosa, UniProt A0A0F7KYQ8); experiment: as above; format: biochemical; settings: CCF2-FA 1.25 μM, 2 hours at 25° C., read-out: VIM1 IC50
Method in brief: as §2

[4] = E. coli CLB30016 (NDM-1), 95% inhibition of growth
[5] = S. marcescens CL5741 (IMP-1), 95% inhibition of growth
[6] = K. pneumoniae IHMA599644 (VIM-1), 95% inhibition of growth
[7] = 95% inhibition of bacterial growth, strain CLB30016
[8] = 95% inhibition of bacterial growth, strain CL5741
[9] = 95% inhibition of bacterial growth, strain IHMA599644

Structure (SMILES) | NDM1 EC30016 MITC95 [1, 4] [µM] | IMP1 SM5741 MITC95 [2, 5] [µM] | VIM1 KP599644 MITC95 [3, 6] [µM] | IC50 (IMP-1; IMP-1 enzyme 2 pM) [nM] | IC50 (NDM-1; NDM-1 enzyme 1 pM) [nM] | IC50 (VIM-1; VIM-1 enzyme 30 pM) [nM] | NDM1 EC30016 MITC95 [1, 7] [µM] | IMP1 SM5741 MITC95 [2, 8] [µM] | VIM1 KP599644 MITC95 [3, 9] [µM] | IC50 (IMP-1; enzyme 2 pM) [nM] | IC50 (NDM-1; enzyme 1 pM) [nM] | IC50 (VIM-1; enzyme 30 pM) [nM]
CCC[C@H](C(=O)O)[C@H](Cc1cccc(N2CCC[C@@H](N)C2)c1)c1nn[nH]n1 [Example 370, (2S)-2-[(1S)-2-{3-[(3R)-3-aminopiperidin-1-yl]phenyl}-1-(2H-tetrazol-5-yl)ethyl]pentanoic acid] | 44 | 175 | 41 | 9000 | 870 | 6.3 |  |  |  |  |  | 
CCC[C@H](C(=O)O)[C@H](Cc1cccnc1)c1nnn[nH]1 [Example 264, (S)-2-((S)-2-(pyridin-3-yl)-1-(1H-tetrazol-5-yl)ethyl)pentanoic acid] | 2.3 | 100 | 18.8 | 7100 | 370 | 16 |  |  |  |  |  | 
CCC[C@H](C(=O)O)[C@H](Cc1cccc(-c2ccccc2CN2CCCCC2)c1)c1nn[nH]n1 [Example 357, (2S)-2-[(1S)-2-[2′-(piperidin-1-ylmethyl)biphenyl-3-yl]-1-(2H-tetrazol-5-yl)ethyl]pentanoic acid] | 150 | 38 | 150 | 2100 | 170 | 63 |  |  |  |  |  | 
CCC[C@H](C(=O)O)[C@H](Cc1ccccc1F)c1nnn[nH]1 [Example 259, (S)-2-((S)-2-(2-fluorophenyl)-1-(1H-tetrazol-5-yl)ethyl)pentanoic acid] | 9.4 | 12.5 | 12.5 | 930 | 37 | 4.2 |  |  |  |  |  | 
CC(C)C[C@H](C(=O)O)[C@H](Cc1ccc(NCCO)nc1)c1nnn[nH]1 [Example 134, (S)-2-((S)-2-(6-((2-hydroxyethyl)amino)pyridin-3-yl)-1-(1H-tetrazol-5-yl)ethyl)-4-methylpentanoic acid] |  |  |  |  |  |  | 0.78 | 4.7 | 18.8 | 230 | 88 | 6.6
CC(C)C[C@H](C(=O)O)[C@H](Cc1ccc(N2CCCC2c2ccccc2)nc1)c1nnn[nH]1 (stereo partly drawn) [Example 303, (2S)-4-methyl-2-[(1S)-2-[6-(2-phenylpyrrolidin-1-yl)pyridin-3-yl]-1-(1H-tetrazol-5-yl)ethyl]pentanoic acid] | 18.8 | 4.7 | 200 | 96 | 14 | 3.9 |  |  |  |  |  | 
CCC[C@H](C(=O)[O-])[C@H](Cc1ccc(C2CC[N+](C)(C)C2)cc1)c1nnn[nH]1 (stereo partly drawn) [Example 418, (2S)-2-((1S)-2-(4-(1,1-dimethylpyrrolidin-1-ium-3-yl)phenyl)-1-(1H-tetrazol-5-yl)ethyl)pentanoate] | 18.75 | 37.5 | 25 | 1990 | 405 | 30.8 |  |  |  |  |  | 
CCC[C@H](C(=O)O)[C@H](Cc1ccc(NCCN2CCCC(O)C2)cc1)c1nn[nH]n1 (stereo partly drawn) [Example 220, (2S)-2-[(1S)-2-(4-{[2-(3-hydroxypiperidin-1-yl)ethyl]amino}phenyl)-1-(2H-tetrazol-5-yl)ethyl]pentanoic acid] |  |  |  |  |  |  | 25 | 50 | 50 | 1600 | 360 | 75
CC(C)[C@H](C(=O)O)[C@H](Cc1ccc(C2=CCNC2)cc1)c1nnn[nH]1 [Example 60, (2S,3S)-4-(4-(2,5-dihydro-1H-pyrrol-3-yl)phenyl)-2-isopropyl-3-(1H-tetrazol-5-yl)butanoic acid] |  |  |  |  |  |  | 3.1 | 9.4 | 4.7 | 760 | 56 | 1.9
CCC[C@H](C(=O)O)[C@H](Cc1ccc(-c2ccc3ccnc(C#N)c3c2)nc1)c1nnn[nH]1 [Example 162, (2S)-2-[(1S)-2-[6-(1-cyanoisoquinolin-7-yl)pyridin-3-yl]-1-(1H-tetrazol-5-yl)ethyl]pentanoic acid] |  |  |  |  |  |  | 75 | 12.5 | 125 | 560 | 22 | 3.7
CC(C)[C@H](C(=O)O)[C@H](Cc1ccc(-c2cnc(NCCO)nc2)cc1)c1nnn[nH]1 [Example 77, (2S,3S)-4-(4-(2-((2-hydroxyethyl)amino)pyrimidin-5-yl)phenyl)-2-isopropyl-3-(1H-tetrazol-5-yl)butanoic acid] |  |  |  |  |  |  | 6.2 | 4.7 | 50 | 99 | 6.1 | 5.7
CCC[C@H](C(=O)O)[C@H](Cc1cccc(-c2ccnc(N3CCNCC3)c2)c1)c1nn[nH]n1 [Example 340, (2S)-2-[(1S)-2-[3-(2-piperazin-1-ylpyridin-4-yl)phenyl]-1-(2H-tetrazol-5-yl)ethyl]pentanoic acid] | 38 | 4.7 | 50 | 180 | 46 | 3.5 |  |  |  |  |  | 
CCC[C@H](C(=O)O)[C@H](Cc1ccc(NC(C)CN)cc1)c1nn[nH]n1 (stereo partly drawn) [Example 222, (2S)-2-[(1S)-2-{4-[(2-amino-1-methylethyl)amino]phenyl}-1-(2H-tetrazol-5-yl)ethyl]pentanoic acid] |  |  |  |  |  |  | 18.8 | 25 | 25 | 1700 | 710 | 9.1
CC(C)C[C@H](C(=O)O)[C@H](Cc1ccc(N2CC(CO)(CO)C2)nc1)c1nnn[nH]1 [Example 330, (2S)-2-[(1S)-2-{6-[3,3-bis(hydroxymethyl)azetidin-1-yl]pyridin-3-yl}-1-(1H-tetrazol-5-yl)ethyl]-4-methylpentanoic acid] | 16 | 25 | 100 | 400 | 100 | 22 |  |  |  |  |  | 
CC(C)C[C@H](C(=O)O)[C@H](Cc1ccc(-c2ccc3c(c2)CNC3)cn1)c1nnn[nH]1 [Example 99, (S)-2-((S)-2-(5-(isoindolin-5-yl)pyridin-2-yl)-1-(1H-tetrazol-5-yl)ethyl)-4-methylpentanoic acid] |  |  |  |  |  |  | 31 | 75 | 100 | 3900 | 600 | 350
CC(C)C[C@H](C(=O)O)[C@H](Cc1ccc(Oc2ccccc2)nc1)c1nn[nH]n1 [Example 381, (2S)-4-methyl-2-[(1S)-2-(6-phenoxypyridin-3-yl)-1-(2H-tetrazol-5-yl)ethyl]pentanoic acid] | 9.4 | 4.7 | 75 | 86 | 24 | 4.1 |  |  |  |  |  | 
CCC[C@H](C(=O)O)[C@H](Cc1ccc(NCC2CCCN2CC)cc1)c1nn[nH]n1 (stereo partly drawn) [Example 215, (2S)-2-[(1S)-2-(4-{[(1-ethylpyrrolidin-2-yl)methyl]amino}phenyl)-1-(2H-tetrazol-5-yl)ethyl]pentanoic acid] |  |  |  |  |  |  | 12.5 | 18.8 | 50 | 1100 | 170 | 29
CC(C)(C)[C@H](C(=O)O)[C@H](Cc1ccc(O)nc1)c1nnn[nH]1 [Example 421, (2R,3S)-2-(tert-butyl)-4-(6-hydroxypyridin-3-yl)-3-(1H-tetrazol-5-yl)butanoic acid] | 25 | 100 | 25 | 156 | 157 | 24.9 |  |  |  |  |  | 
CCC[C@H](C(=O)O)[C@H](Cc1cccc(-c2ccc(N3CCNCC3)nc2)c1)c1nn[nH]n1 [Example 355, (2S)-2-[(1S)-2-[3-(6-piperazin-1-ylpyridin-3-yl)phenyl]-1-(2H-tetrazol-5-yl)ethyl]pentanoic acid] | 12.5 | 9.4 | 18.8 | 550 | 21 | 2.8 |  |  |  |  |  | 
